Reference: PubChem BioAssay (NCI)
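1) Cells in 96-well plates. 2) Compound, 48 h, 5 concentrations. 3) Linear interpolation between surrounding doses. 4) Unreached endpoint = highest concentration. TGI: total growth inhibition.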 Where a SMILES comes first, the peptide text is derived from it. The star is where a group is joined. Cbz = O=C(OCc1ccccc1)*; Boc = CC(C)(C)OC(=O)*; tBu = CC(C)(C)*

Legend:
Test in all cases: NCI tumour cell line growth inhibition, 48 h
SR leukemia = test system: SR leukemia
MDA-MB-435 = test system: MDA-MB-435
T-47D breast = test system: T-47D breast
A498 renal = test system: A498 renal
NCI-H460 lung = test system: NCI-H460 lung
SK-MEL-5 melanoma = test system: SK-MEL-5 melanoma
MALME-3M melanoma = test system: MALME-3M melanoma
UACC-62 melanoma = test system: UACC-62 melanoma
UACC-257 melanoma = test system: UACC-257 melanoma
M14 melanoma = test system: M14 melanoma
COLO 205 colon = test system: COLO 205 colon
HCT-116 colon = test system: HCT-116 colon
HOP-92 NSCLC = test system: HOP-92 NSCLC
TK-10 renal = test system: TK-10 renal
UO-31 renal = test system: UO-31 renal
U251 CNS = test system: U251 CNS
SNB-75 CNS = test system: SNB-75 CNS
CAKI-1 renal = test system: CAKI-1 renal

Compound | TGI (SR leukemia) [µM] | TGI (MDA-MB-435) [µM] | TGI (T-47D breast) [µM] | TGI (A498 renal) [µM] | TGI (NCI-H460 lung) [µM] | TGI (SK-MEL-5 melanoma) [µM] | TGI (MALME-3M melanoma) [µM] | TGI (UACC-62 melanoma) [µM] | TGI (UACC-257 melanoma) [µM] | TGI (M14 melanoma) [µM] | TGI (COLO 205 colon) [µM] | TGI (HCT-116 colon) [µM] | TGI (HOP-92 NSCLC) [µM] | TGI (TK-10 renal) [µM] | TGI (UO-31 renal) [µM] | TGI (U251 CNS) [µM] | TGI (SNB-75 CNS) [µM] | TGI (CAKI-1 renal) [µM]
O=C1N[C@@H](c2c[nH]c3cc(Br)ccc23)C(=O)N[C@H]1c1c[nH]c2cc(Br)ccc12 | > 100 | > 100 | > 100 | > 100 | > 100 | > 100 | > 100 | > 100 | > 100 | > 100 | > 100 | > 100 | > 100 | > 100 | > 100 | 60.1 | 90.1 | –
COC(=O)C1C(=O)C=CN([C@H](C)c2ccccc2)[C@@H]1Cc1ccc(OC)c(OCc2ccccc2)c1I (stereo partly specified) | > 100 | 47.8 | 60.9 | 34.8 | 31.7 | 27.4 | 39.6 | 25.7 | 39.3 | 30.2 | 31.7 | 24.3 | 17.4 | 60.4 | 26.3 | 39.7 | – | > 100
CC(OC(C)(C)C)C(NC(=O)C(CCCCNC(=O)OC(C)(C)C)NC(=O)C(Cc1c[nH]c2ccccc12)NC(=O)C(Cc1ccccc1)NC(=O)OCc1ccccc1)C(=O)NC(Cc1ccccc1)C(=O)O (stereo unspecified) (Cbz-FWK(Boc)T(tBu)F-OH; configuration not given here) | > 100 | > 100 | 73.6 | > 100 | > 100 | 33.9 | > 100 | 67.9 | > 100 | > 100 | > 100 | > 100 | > 100 | > 100 | > 100 | > 100 | > 100 | > 100
CC(C)Oc1ccc2c(c1)OCC1Cc3ccccc3OC21 (stereo unspecified) | > 100 | > 100 | > 100 | > 100 | – | 47.5 | > 100 | > 100 | > 100 | > 100 | – | > 100 | > 100 | > 100 | > 100 | > 100 | – | > 100
COC/C=C\[C@]1(O)CCCC[C@@H]1CC(OC)OC | > 100 | > 100 | > 100 | > 100 | > 100 | > 100 | > 100 | > 100 | > 100 | > 100 | > 100 | – | > 100 | > 100 | > 100 | > 100 | > 100 | > 100
CC(C)(C)c1ccc(-c2nc3ccc(Cl)cc3c(=O)o2)cc1 | 47.9 | 56.5 | > 100 | 79.4 | > 100 | 26.2 | 50.9 | 56.5 | 65.1 | 49.2 | 39.9 | 40.5 | 46.8 | > 100 | 77.6 | 31.3 | 81.6 | 63.9
COC(=O)C1=C(C(=O)OC)c2cc(OC)ccc2C(C(=S)N(C)C)S1 (stereo unspecified) | > 100 | > 100 | > 100 | > 100 | > 100 | – | > 100 | > 100 | > 100 | > 100 | > 100 | > 100 | > 100 | > 100 | > 100 | > 100 | > 100 | > 100
Cc1ccc(C)c(COCCOCn2ccc(N)nc2=O)c1 | > 100 | > 100 | > 100 | > 100 | > 100 | – | > 100 | > 100 | > 100 | > 100 | > 100 | > 100 | > 100 | > 100 | > 100 | > 100 | > 100 | > 100
CCCCCCCCCCN(CCCCCCCCCC)C(=O)COc1c2cc(C(C)(C)C)cc1Cc1cc(C(C)(C)C)cc(c1OCC(=O)N(CCCCCCCCCC)CCCCCCCCCC)Cc1cc(C(C)(C)C)cc(c1OCC(=O)N(CCCCCCCCCC)CCCCCCCCCC)Cc1cc(C(C)(C)C)cc(c1OCC(=O)N(CCCCCCCCCC)CCCCCCCCCC)C2 | 6.06 | 25.6 | 32.3 | 29.1 | 26.2 | 26.4 | 28.7 | 25.3 | 29.6 | 8.01 | 29.2 | 5.6 | 11.4 | 33.5 | 37.1 | 23.2 | 32.5 | –
CNC(=O)N1CN(c2ccccc2)C2(CCN(CCCC3(c4ccc(F)cc4)OCCO3)CC2)C1=O | > 100 | > 100 | > 100 | > 100 | > 100 | > 100 | > 100 | > 100 | – | > 100 | > 100 | > 100 | > 100 | > 100 | > 100 | > 100 | > 100 | > 100
Cc1ccccc1N=Nc1ccc(N/N=C2/CCCNC2=O)c(C)c1 | > 100 | > 100 | > 100 | > 100 | > 100 | > 100 | > 100 | > 100 | > 100 | > 100 | > 100 | > 100 | > 100 | > 100 | > 100 | > 100 | – | > 100
O=c1c2cc(S(=O)(=O)O)ccc2nc(COc2ccc(Oc3ccc(Cl)cc3Cl)cc2)n1-c1ccc(Cl)cc1Oc1c(Cl)cccc1Cl | 96.7 | 66.5 | > 100 | 67.3 | 46.5 | 32.1 | > 100 | 48.9 | 86.6 | 55.8 | 32.1 | 67.8 | 47.1 | > 100 | 37 | 40.5 | – | > 100
O=c1oc2cc(O)ccc2c(O)c1C(c1ccccc1F)c1c(O)c2ccc(O)cc2oc1=O | > 100 | > 100 | > 100 | > 100 | > 100 | > 100 | – | > 100 | > 100 | > 100 | > 100 | > 100 | > 100 | > 100 | > 100 | > 100 | > 100 | > 100
